# In patent US12478626B2, “Kinase mutants and uses thereof” (SIB Swiss Institute of Bioinformatics, priority 2017, dated 2025):
# Biological target: T1, wild type Zap-70 (Homo sapiens, UniProt P43403)
# T1 sequence (P43403 1-619): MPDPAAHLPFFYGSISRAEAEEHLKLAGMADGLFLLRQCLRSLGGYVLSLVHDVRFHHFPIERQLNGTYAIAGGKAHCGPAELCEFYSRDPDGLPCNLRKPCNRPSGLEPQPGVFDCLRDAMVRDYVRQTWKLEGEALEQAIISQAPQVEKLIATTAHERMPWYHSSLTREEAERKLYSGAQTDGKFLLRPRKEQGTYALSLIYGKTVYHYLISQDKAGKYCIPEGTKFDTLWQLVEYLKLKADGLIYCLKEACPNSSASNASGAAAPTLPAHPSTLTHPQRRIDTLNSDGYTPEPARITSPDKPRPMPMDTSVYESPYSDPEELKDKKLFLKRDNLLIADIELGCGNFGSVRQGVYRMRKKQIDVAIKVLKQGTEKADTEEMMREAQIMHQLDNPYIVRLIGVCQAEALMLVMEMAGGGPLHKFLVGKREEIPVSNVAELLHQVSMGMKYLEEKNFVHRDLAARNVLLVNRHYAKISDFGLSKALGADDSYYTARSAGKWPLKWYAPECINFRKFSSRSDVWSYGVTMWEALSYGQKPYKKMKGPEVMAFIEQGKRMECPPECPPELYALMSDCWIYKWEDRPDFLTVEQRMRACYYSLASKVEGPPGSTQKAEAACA
# Test: not given
# Conditions: Karaman et al.; cited from earlier work
row,Compound,inhibitory effect on the wild type Zap-70
1,CS(=O)(=O)CCNCc1ccc(-c2ccc3ncnc(Nc4ccc(OCc5cccc(F)c5)c(Cl)c4)c3c2)o1 [Lapatinib],no or little inhibitory effect

# System: Zap-70 mutants in P116 cells
# Test: Inhibition of IL-2 production by TKI at two concentrations, Zap-70 mutants versus WT
# Conditions: 500 nM and 1 or […], 24 h and 48 h
row,Compound,inhibition in production of IL-2 in mutants compared to Zap-70 WT
1,C=CC(=O)Nc1cccc(Nc2nc(Nc3ccc(N4CCN(C(C)=O)CC4)cc3OC)ncc2C(F)(F)F)c1 [CO-1686],No significantly different inhibition
2,C#Cc1cccc(Nc2ncnc3cc(OCCOC)c(OCCOC)cc23)c1 [Erlotinib],higher in mutants than WT
3,CS(=O)(=O)CCNCc1ccc(-c2ccc3ncnc(Nc4ccc(OCc5cccc(F)c5)c(Cl)c4)c3c2)o1 [Lapatinib],increase of cell response
4,CCOc1cc2ncc(C#N)c(Nc3ccc(OCc4ccccn4)c(Cl)c3)c2cc1NC(=O)/C=C/CN(C)C [Neratinib],No significantly different inhibition
5,Crizotinib,increase of cell response
